The values below come from the supplement of paper PMC10307832.

Test in all cases: relative viability (nuclei count vs DMSO), 5 days (fraction); higher = more cells survive
Compound in the assay “Wnt-C59 + Dasatinib”: CC1=NC=CC(=C1)C2=CC=C(C=C2)CC(=O)NC3=CC=C(C=C3)C4=CN=CC=C4 [Wnt-C59] + Cc1nc(Nc2ncc(C(=O)Nc3c(C)cccc3Cl)s2)cc(N2CCN(CCO)CC2)n1 [Dasatinib] (partner 0.075 µM)
A digest of the protocol:
(§1)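 Five library-drug doses in √10 steps were combined with a fixed anchor-drug dose, or a single drug was given alone, by pin tool to lung cancer cell lines in 1536-well plates the day after seeding. Nuclei were stained and counted after 5 days. Relative viability is the nuclei count in treated wells over that in vehicle wells, taken as the median of duplicate plates.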

Compound in the assay “Lapatinib + Navitoclax”: CS(=O)(=O)CCNCc1ccc(-c2ccc3ncnc(Nc4ccc(OCc5cccc(F)c5)c(Cl)c4)c3c2)o1 [Lapatinib] + CC1(C)CCC(c2ccc(Cl)cc2)=C(CN2CCN(c3ccc(C(=O)NS(=O)(=O)c4ccc(N[C@H](CCN5CCOCC5)CSc5ccccc5)c(S(=O)(=O)C(F)(F)F)c4)cc3)CC2)C1 [Navitoclax] (partner 0.5 µM)
The procedure, abridged: as §1

Compound in the assay “Lapatinib + Luminespib”: CS(=O)(=O)CCNCc1ccc(-c2ccc3ncnc(Nc4ccc(OCc5cccc(F)c5)c(Cl)c4)c3c2)o1 [Lapatinib] + CCNC(=O)c1noc(-c2cc(C(C)C)c(O)cc2O)c1-c1ccc(CN2CCOCC2)cc1 [Luminespib] (partner 0.01 µM)
A digest of the protocol:
as §1

Compound in the assay “Lapatinib + Decitabine”: CS(=O)(=O)CCNCc1ccc(-c2ccc3ncnc(Nc4ccc(OCc5cccc(F)c5)c(Cl)c4)c3c2)o1 [Lapatinib] + Nc1ncn([C@H]2C[C@H](O)[C@@H](CO)O2)c(=O)n1 [Decitabine] (partner 2 µM)
A digest of the protocol:
as §1

For the cell line UMC-11, the relative viability worked out at 0.444 in the assay with Wnt-C59 + Dasatinib (first compound 0.001 µM); 0.417 with Wnt-C59 + Dasatinib (first compound 0.01 µM); 0.525 with Wnt-C59 + Dasatinib (first compound 0.03162 µM); 0.468 with Wnt-C59 + Dasatinib (first compound 0.1 µM); 0.352 with Lapatinib + Navitoclax (first compound 0.02 µM); 0.278 with Lapatinib + Navitoclax (first compound 0.06325 µM). The relative viability with Lapatinib + Navitoclax (first compound 0.2 µM) was 0.311; in the assay with Lapatinib + Navitoclax (first compound 0.6325 µM) it was 0.318; with Lapatinib + Navitoclax (first compound 2 µM), 0.314; with Lapatinib + Luminespib (first compound 0.02 µM), 0.887; in the assay with Lapatinib + Luminespib (first compound 0.06325 µM), 0.957; with Lapatinib + Luminespib (first compound 0.2 µM) it was 0.976. Besides, the relative viability came to 0.901 in the assay with Lapatinib + Luminespib (first compound 0.6325 µM); 1.02 in the assay with Lapatinib + Luminespib (first compound 2 µM); 0.493 with Lapatinib + Decitabine (first compound 0.02 µM); 0.541 with Lapatinib + Decitabine (first compound 0.06325 µM); 0.627 with Lapatinib + Decitabine (first compound 0.2 µM); 0.518 in the assay with Lapatinib + Decitabine (first compound 0.6325 µM). Moreover, the relative viability with Lapatinib + Decitabine (first compound 2 µM) was 0.604.
